Key:
Assay type in all cases: in vivo
Settings in all cases: evaluated after 13 days
Avena fatua (AVEFA) [1] = assay: Post-emergence herbicidal activity, Avena fatua
In short: (§1)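 Scoring runs 0 (no damage) to 5 (total damage), assessed 13 days after treatment. Seedlings 8 days post-sowing received an aqueous spray from acetone/water 50:50 with 0.5% Tween 20, then were kept at 24/16 °C, 14 h light, 65% humidity and watered twice daily.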

Lolium perenne (LOLPE) [2] = assay: Post-emergence herbicidal activity, Lolium perenne; parameters: key: 5=total damage to plant; 0=no damage to plant
In short: as §1

[3] = tested on: Alopecurus myosuroides (ALOMY); assay: Post-emergence herbicidal activity, Alopecurus myosuroides; parameters: key: 5=total damage to plant; 0=no damage to plant
In short: as §1

Avena fatua (AVEFA) [4] = assay: Pre-emergence herbicidal activity, Avena fatua; parameters: key: 5=total damage to plant; 0=no damage to plant
In short: (§2)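 First, seeds were sown in standard soil and held one day under glasshouse conditions. Next, soil was sprayed with the active ingredient formulated in 50:50 acetone/water plus 0.5% Tween 20. Plants then grew at 24/16 °C day/night with 14 h light and 65% humidity before evaluation after 13 days.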

[5] = tested on: Triticum aestivium (TRZAW); assay: Pre-emergence herbicidal activity, Triticum aestivium; parameters: key: 5=total damage to plant; 0=no damage to plant
In short: as §2

[6] = tested on: Triticum aestivium (TRZAW); assay: Post-emergence herbicidal activity, Triticum aestivium; parameters: key: 5=total damage to plant; 0=no damage to plant
In short: as §1

[7] = tested on: Echinochloa crus-galli (ECHCG); assay: Post-emergence herbicidal activity, Echinochloa crus-galli; parameters: key: 5=total damage to plant; 0=no damage to plant
In short: as §1

[8] = tested on: Echinochloa crus-galli (ECHCG); assay: Pre-emergence herbicidal activity, Echinochloa crus-galli; parameters: key: 5=total damage to plant; 0=no damage to plant
In short: as §2

Lolium perenne (LOLPE) [9] = assay: Pre-emergence herbicidal activity, Lolium perenne; parameters: key: 5=total damage to plant; 0=no damage to plant
In short: as §2

[10] = tested on: Alopecurus myosuroides (ALOMY); assay: Pre-emergence herbicidal activity, Alopecurus myosuroides; parameters: key: 5=total damage to plant; 0=no damage to plant
In short: as §2

Setaria faberi (SETFA) [11] = assay: Post-emergence herbicidal activity, Setaria faberi; parameters: key: 5=total damage to plant; 0=no damage to plant
In short: as §1

Setaria faberi (SETFA) [12] = assay: Pre-emergence herbicidal activity, Setaria faberi; parameters: key: 5=total damage to plant; 0=no damage to plant
In short: as §2

SMILES | Control of AVEFA after post-emergence application (score 0-5) (Avena fatua (AVEFA) [1]; 1000 g/ha) | Control of LOLPE after post-emergence application (score 0-5) (Lolium perenne (LOLPE) [2]; 1000 g/ha) | Control of ALOMY after post-emergence application (score 0-5) ([3]; 1000 g/ha) | Control of AVEFA after pre-emergence application (score 0-5) (Avena fatua (AVEFA) [4]; 1000 g/ha) | Control of TRAZW after pre-emergence application (score 0-5) ([5]; 1000 g/ha) | Control of TRAZW after post-emergence application (score 0-5) ([6]; 1000 g/ha) | Control of ECHCG after post-emergence application (score 0-5) ([7]; 1000 g/ha) | Control of ECHCG after pre-emergence application (score 0-5) ([8]; 1000 g/ha) | Control of LOLPE after pre-emergence application (score 0-5) (Lolium perenne (LOLPE) [9]; 1000 g/ha) | Control of ALOMY after pre-emergence application (score 0-5) ([10]; 1000 g/ha) | Control of SETFA after post-emergence application (score 0-5) (Setaria faberi (SETFA) [11]; 1000 g/ha) | Control of SETFA after pre-emergence application (score 0-5) (Setaria faberi (SETFA) [12]; 1000 g/ha) | also measured
O=C(Nc1cncnc1)Nc1ccc(-c2cncc(F)c2)nc1C(F)(F)F [Compound B70] | 1 | 1 | 0 | 0 | 0 | 1 | 3 | 1 | 0 | 0 | 3 | 2 | 
O=C(Nc1ccc(-c2cncc(F)c2)nc1C(F)(F)F)NC1CC1 [Compound B89] | 4 | 2 | 0 | 2 | 0 | 1 | 5 | 4 | 1 | 0 | 5 | 5 | 
CN1CCN(c2ccc(-c3cncc(F)c3)nc2C(F)(F)F)C1=O [Compound B46] | 3 | 2 | 0 | 1 | 0 | 0 | 4 | 2 | 0 | 0 | 4 | 4 | 
CCCOC(=O)Nc1ccc(-c2cncc(F)c2)nc1C(F)(F)F [Compound B42] | 4 | 3 | 1 | 3 | 0 | 2 | 5 | 4 | 1 | 1 | 5 | 5 | 
O=C(NCc1cccnc1)Nc1ccc(-c2cncc(F)c2)nc1C(F)(F)F [Compound B97] |  |  |  |  |  |  |  |  |  |  |  |  | Control of AVEFA after post-emergence application (score 0-5) (Avena fatua (AVEFA) [1]; 250 g/ha): 2; Control of LOLPE after post-emergence application (score 0-5) (Lolium perenne (LOLPE) [2]; 250 g/ha): 1; Control of ALOMY after post-emergence application (score 0-5) ([3]; 250 g/ha): 0; Control of AVEFA after pre-emergence application (score 0-5) (Avena fatua (AVEFA) [4]; 250 g/ha): 0; Control of TRAZW after pre-emergence application (score 0-5) ([5]; 250 g/ha): 0; Control of TRAZW after post-emergence application (score 0-5) ([6]; 250 g/ha): 0; Control of ECHCG after post-emergence application (score 0-5) ([7]; 250 g/ha): 1; Control of ECHCG after pre-emergence application (score 0-5) ([8]; 250 g/ha): 0; Control of LOLPE after pre-emergence application (score 0-5) (Lolium perenne (LOLPE) [9]; 250 g/ha): 0; Control of ALOMY after pre-emergence application (score 0-5) ([10]; 250 g/ha): 0; Control of SETFA after post-emergence application (score 0-5) (Setaria faberi (SETFA) [11]; 250 g/ha): 1; Control of SETFA after pre-emergence application (score 0-5) (Setaria faberi (SETFA) [12]; 250 g/ha): 0
COc1nc(-c2cncc(F)c2)ccc1N(C(=O)OC(C)(C)C)C(=O)OC(C)(C)C [Compound B109] | 1 | 0 | 0 | 1 | 0 | 0 | 1 | 0 | 0 | 0 | 1 | 3 | 
CN1COCN(c2ccc(-c3cncc(F)c3)nc2C(F)(F)F)C1=O [Compound B121, 3-[6-(5-fluoro-3-pyridyl)-2-(trifluoromethyl)-3-pyridyl]-5-methyl-1,3,5-oxadiazinan-4-one] | 3 | 2 | 0 | 0 | 0 | 0 | 3 | 2 | 0 | 0 | 5 | 4 | 
CCCCNC(=O)Nc1ccc(-c2cncc(F)c2)nc1C(F)(F)F [Compound B106] |  |  |  |  |  |  |  |  |  |  |  |  | Control of AVEFA after post-emergence application (score 0-5) (Avena fatua (AVEFA) [1]; 250 g/ha): 3; Control of LOLPE after post-emergence application (score 0-5) (Lolium perenne (LOLPE) [2]; 250 g/ha): 1; Control of ALOMY after post-emergence application (score 0-5) ([3]; 250 g/ha): 0; Control of AVEFA after pre-emergence application (score 0-5) (Avena fatua (AVEFA) [4]; 250 g/ha): 1; Control of TRAZW after pre-emergence application (score 0-5) ([5]; 250 g/ha): 0; Control of TRAZW after post-emergence application (score 0-5) ([6]; 250 g/ha): 0; Control of ECHCG after post-emergence application (score 0-5) ([7]; 250 g/ha): 3; Control of ECHCG after pre-emergence application (score 0-5) ([8]; 250 g/ha): 1; Control of LOLPE after pre-emergence application (score 0-5) (Lolium perenne (LOLPE) [9]; 250 g/ha): 1; Control of ALOMY after pre-emergence application (score 0-5) ([10]; 250 g/ha): 0; Control of SETFA after post-emergence application (score 0-5) (Setaria faberi (SETFA) [11]; 250 g/ha): 5; Control of SETFA after pre-emergence application (score 0-5) (Setaria faberi (SETFA) [12]; 250 g/ha): 5
Cc1cc(CNC(=O)Nc2ccc(-c3cncc(F)c3)nc2C(F)(F)F)c(C(F)(F)F)o1 [Compound B79] | 2 | 1 | 0 | 0 | 0 | 0 | 1 | 2 | 1 | 0 | 2 | 1 | 
CC(C)(C)OC(=O)Nc1ccc(-c2cncc(C(F)F)c2)nc1C(F)(F)F [Compound B5] | 1 | 1 | 1 | 0 | 0 | 0 | 3 | 2 | 0 | 0 | 4 | 4 | 
O=C(Nc1cc(Cl)cc(Cl)c1)Nc1ccc(-c2cncc(F)c2)nc1C(F)(F)F [Compound B88] |  |  |  |  |  |  |  |  |  |  |  |  | Control of AVEFA after post-emergence application (score 0-5) (Avena fatua (AVEFA) [1]; 250 g/ha): 1; Control of LOLPE after post-emergence application (score 0-5) (Lolium perenne (LOLPE) [2]; 250 g/ha): 0; Control of ALOMY after post-emergence application (score 0-5) ([3]; 250 g/ha): 0; Control of AVEFA after pre-emergence application (score 0-5) (Avena fatua (AVEFA) [4]; 250 g/ha): 0; Control of TRAZW after pre-emergence application (score 0-5) ([5]; 250 g/ha): 0; Control of TRAZW after post-emergence application (score 0-5) ([6]; 250 g/ha): 0; Control of ECHCG after post-emergence application (score 0-5) ([7]; 250 g/ha): 1; Control of ECHCG after pre-emergence application (score 0-5) ([8]; 250 g/ha): 1; Control of LOLPE after pre-emergence application (score 0-5) (Lolium perenne (LOLPE) [9]; 250 g/ha): 2; Control of ALOMY after pre-emergence application (score 0-5) ([10]; 250 g/ha): 0; Control of SETFA after post-emergence application (score 0-5) (Setaria faberi (SETFA) [11]; 250 g/ha): 1; Control of SETFA after pre-emergence application (score 0-5) (Setaria faberi (SETFA) [12]; 250 g/ha): 2
O=C(NOCC(F)F)Nc1ccc(-c2cncc(F)c2)nc1C(F)(F)F [Compound B110] | 3 | 1 | 0 | 0 | 0 | 0 | 3 | 3 | 0 | 0 | 4 | 4 | 

From US20210127673A1, “HERBICIDES” (SYNGENTA PARTICIPATIONS AG, priority 2016, published 2021)
